Measurements published in the NIST ThermoML archive (doi:10.1021/je4005245).

Conditions: 101.33 kPa, Liquid, Vibrating wire viscometry

CC(C)CCCC(C)CCCC(C)CCCCC(C)CCCC(C)CCCC(C)C (configuration not stated) [2,6,10,15,19,23-hexamethyltetracosane]
Conditions | viscosity [mPa·s]
283.77 K | 60.2
288.47 K | 46.1
293.29 K | 35.59
298.12 K | 27.95
303.07 K | 22.45
308.09 K | 18.3
313.13 K | 15
318.17 K | 12.5
323.19 K | 10.57
328.26 K | 8.99
333.2 K | 7.8
338.18 K | 6.81
343.07 K | 6
348.08 K | 5.32
353.08 K | 4.72
358.13 K | 4.2
362.98 K | 3.78

CCCCC(CC)COC(=O)c1ccccc1C(=O)OCC(CC)CCCC (configuration not stated) [bis(2-ethylhexyl) 1,2-benzenedicarboxylate]
Conditions | viscosity [mPa·s]
288.53 K | 110.7
293.38 K | 78.73
298.29 K | 57.94
303.33 K | 43.27
308.23 K | 33.17
313.18 K | 26.13
317.99 K | 21.08
323.02 K | 16.96
328.12 K | 13.91
333.19 K | 11.62
337.71 K | 9.903
343.53 K | 8.268
348.48 K | 7.158
353.68 K | 6.199

CCCCC(CC)COC(=O)CCCCCCCCC(=O)OCC(CC)CCCC (configuration not stated) [bis(2-ethylhexyl) decanedioate]
Conditions | viscosity [mPa·s]
284.06 K | 31.95
288.71 K | 25.84
293.37 K | 21.14
298.26 K | 17.42
303.1 K | 14.55
307.9 K | 12.37
313.24 K | 10.4
318.26 K | 9.023
323.17 K | 7.865
328.26 K | 6.878
333.2 K | 6.067
338.16 K | 5.435
342.81 K | 4.883
348.07 K | 4.38
352.98 K | 3.987
358.09 K | 3.626
